Tests used:
type VI collagen = experiment: Western blotting of type VI collagen in quadriceps; type: in vivo, mouse; settings: 240 mg/kg i.p. twice daily for 5 weeks
Experimental: (§1) mdx/utrn−/− mice lack both dystrophin and utrophin, and were bred and genotyped as reported in Burkin, et al., Enhanced expression of the alpha 7 beta 1 integrin reduces muscular dystrophy and restores viability in dystrophic mice, J. Cell Biol. 152:1207-18 (2001). 240 mg/kg body weight of VPA was injected intraperitoneally twice daily into mdx/utrn^−/− mice (n=9) starting at 3 weeks of age, for a period of 5 weeks. Control mice were injected with saline (n=9). Body-weights were determined daily.
(§2) Cell lysates of differentiating cells on 60 mm dishes were prepared as follows: the cells were washed twice with PBS and 200 μl Triton X-100 lysis buffer (2% Triton X-100, 20 mM Tris-Cl, pH 7.4, 150 mM NaCl, 1 mM EDTA, 1 mM EGTA, 2.5 mM NaPPi, 1 mM β-glycerophosphate, 1 mM sodium vanadate, 1:200 Protease Inhibitor Cocktail (EMD Chemicals, San Diego, Calif.) and 1 mM PMSF) were added. The cells were scraped and transferred into Eppendorf tubes, the cell suspensions were triturated and centrifuged at 8000×g at 4° C. for 10 minutes, and the supernatants were collected. […] Protein concentrations were determined by the Bradford assay. […] The supernatants were collected and protein concentrations were determined spectrophotometrically at OD260 and OD280. […] ImageQuant analysis software (Molecular Dynamics, Sunnyvale, Calif.) was used to quantify band intensity.

Akt = experiment: Western blotting of activated and total Akt in quadriceps of mdx/utrn−/− mice; type: in vivo, mouse; settings: 240 mg/kg i.p. twice daily for 5 weeks
Experimental: as §1, §2

dyw mouse model of MDC1A = experiment: VPA in the dyw mouse model of MDC1A (predicted); type: in vivo
Experimental: In particular, the effect of VPA on MDC1A is determined by using the dyw mouse model of MDC1A. VPA (60 mg/kg or 240 mg/kg body weight) is administered i.p. daily to male dyw mice (n=11 each, as determined by Power analysis with α=0.05, p=0.8 and r=0.5) for 6 weeks starting at 10 days of age. Daily body weights are noted and mice observed for signs of overt toxicity. Control mice of each genotype will be injected with the same volumes of sterile saline. At the end of the course of injections, mice are sacrificed and the gastrocnemius-soleus, quadriceps, heart and diaphragm harvested. Tissues are sectioned on a Leica CM 1850 cryostat to 10 μm. Hematoxylin-eosin staining is performed on the sections. The effect of VPA on the Akt pathway, fibrosis, apoptosis and/or fiber-diameter variation in skeletal muscle of dyw mice is determined by methods known to those of ordinary skill in the art including, but not limited to those described below.
As muscle fiber-diameter variation is a pathological feature in MDC1A muscle, it can be determined if treatment with VPA restores this parameter in dyw mice. Using image analysis software, muscle-fiber diameters are calculated in at least 500 fibers per mouse in both the VPA and control treated groups. […] Data is analyzed by ANOVA and a p-value of <0.05 is considered statistically significant.
To quantify fibrosis in muscles, western blotting is performed on muscle extracts using an antibody against collagen VI (Santa Cruz Biotechnology, Santa Cruz, Calif.). Protein extracts are made from muscles as reported (Gurpur et al., 2009) and the Bradford assay is done to determine protein concentrations. Western blotting is carried out using 1:1000 dilution of the anti-collagen VI antibody. The blots are re-probed with an antibody against tubulin to ensure equal protein loading. Band intensities are quantified using the LiCor Odyssey software (LiCor Biosciences, Lincoln, Neb.). Ratio of the collagen VI to tubulin band-intensities is calculated. […] Data is analyzed by ANOVA and a p-value of <0.05 is considered statistically significant.
Muscle fiber loss due to apoptosis is a significant problem in MDC1A patients. To determine if VPA treatment decreases apoptosis in dyw muscle, after the course of injections, mice are sacrificed and the gastrocnemius-soleus, quadriceps and diaphragm harvested. Tissues are sectioned on a Leica CM 1850 cryostat to 10 μm. The DeadEnd fluorometric TUNEL assay kit (Promega, Madison, Wis.) is used as per the manufacturer's instructions to label apoptotic nuclei in the cryosections. The total number of nuclei (DAPI labeled, fluorescing blue) and the apoptotic nuclei (fluorescing green) are counted in 15 random fields for each muscle, for each mouse. The proportion of apoptotic nuclei is quantified and compared between the VPA injected and control mice. […] Data is analyzed by ANOVA and a p-value of <0.05 is considered statistically significant.
VPA is administered to male dyw mice (n=11 each) daily for 6 weeks with 80 mg/kg or 240 mg/kg body weight of VPA starting at 10 days of age. Daily body weights are noted and mice are observed for signs of overt toxicity. Control mice are injected with the same volumes of sterile saline.
After the course of injections, mice are sacrificed and the gastrocnemius-soleus, quadriceps and diaphragm harvested. Protein extracts are made from the muscles as reported (Gurpur et al., 2009). […]

Compound: CCCC(CCC)C(=O)O [VPA, valproic acid]
- less type VI collagen in muscle than control mice (type VI collagen): approximately 3 fold
- levels of activated Akt in muscle (Akt): Significantly higher levels
- Akt pathway in skeletal muscle of dyw mice (dyw mouse model of MDC1A): activates the Akt pathway
- apoptosis in skeletal muscle of dyw mice (dyw mouse model of MDC1A): inhibiting apoptosis
- fiber-diameter variation in skeletal muscle of dyw mice (dyw mouse model of MDC1A): decreasing fiber-diameter variation
- fibrosis in skeletal muscle of dyw mice (dyw mouse model of MDC1A): decreasing fibrosis
- pathology in dyw mice (dyw mouse model of MDC1A): ameliorate pathology

Source: patent US20120003191A1, “VALPROIC ACID, DERIVATIVES, ANALOGUES, AND COMPOSITIONS INCLUDING SAME AND METHODS FOR THEIR THERAPEUTIC USE” (priority 2009, published 2012)
